Data taken from patent US10336687B2, “Selected amide of Y-hydroxybutyric acid and uses thereof in the treatment of alcohol misuse” (priority 2015, dated 2019).
Read-outs that look alike come from different tables or passages of the source. Marks after values point to notes of the source that are not given here.

Key:
[1] = system: Sardinian alcohol preferring (sP) rats; test: Maintenance of alcohol intake, 2-bottle free choice regimen between alcohol (10% v/v) and water; assay type: in vivo, rat; settings: acute oral administration
From the text: Anti-alcohol profile of ACGET61 in Sardinian alcohol preferring (sP) rats Sardinian alcohol preferring (sP) rats represents one of the few rat lines selectively bred worldwide for high ethanol preference and consumption (Colombo et al., 2006) and are utilized in multiple experimental procedures validated for the evaluation of different aspects of alcohol drinking. These experimental procedures include Maintenance of alcohol intake, and Operant self-administration of alcohol.
In this procedure sP rats were exposed to a 2-bottle free choice regimen between alcohol (10% v/v) and water. Under this condition, the animals can choose between a bottle containing the alcohol solution and a bottle containing water, and voluntarily consume about 6 g/kg/day of alcohol, with a preference for alcohol of about 90%.

[2] = system: Sardinian alcohol preferring (sP) rats; test: Operant self-administration of alcohol, fixed ratio FR4; assay type: in vivo, rat
From the text: (§1) In these procedures sP rats were trained to self-administer alcohol or sucrose by pressing a lever, and the amount of work (lever pressing) requested to obtain alcohol, varied according with the aim of the single schedule of reinforcement, Fixed ratio (FR) or Progressive ratio (PR).
(§2) Sucrose solution (3% w/v) was systematically employed in these experiments as alternative reinforcer, in order to assess if test compounds exert a selective effect on the alcohol solution (15% v/v) self-administration.
(§3) In the FR the rat obtain alcohol or sucrose in response to four consecutive lever pressing (FR4), while in the PR the number of lever pressing necessary to obtain alcohol or sucrose increased progressively till the rat stop pressing the lever (Break point; BP). Each FR4 or PR/BP session lasted 30 minutes.

[3] = system: Sardinian alcohol preferring (sP) rats; test: Operant self-administration of alcohol, progressive ratio / break point (PR/BP); assay type: in vivo, rat; settings: for Effective Doses mg/kg: PR/BP model, sP rats
From the text: as §1, §2, §3

[4] = system: hippocampal slices; test: Basal GABA and glutamate outflow in hippocampal slices; assay type: cell-based, rat; settings: 10 and 100 μM
Experimental: (§4) Based on previous results obtained for GET 73, which influences the aminoacidergic neurotransmission in the rat hippocampus, probably through a complex modulation of the metabotropic glutamate receptors subtype 5 (mGluR5) (Beggiato et al., 2013; Ferraro et al., 2011, 2013) the positional isomer ACGET61 was evaluated in vitro in hippocampal slices, by measuring GABA and glutamate levels in different experimental conditions.

[5] = system: hippocampal slices; test: K+-evoked GABA and glutamate outflow in KCl stimulated hippocampal slices; assay type: cell-based, rat
Experimental: as §4
Additional studies aimed at exploring the effect of ACGET61 (10 pM-10 μM) in KCl stimulated hippocampal slices were carried out.

[6] = target: T1, mGluR5 (Rattus norvegicus, UniProt P31424); test: Increase in K+-evoked glutamate outflow induced by the mGluR5 receptor agonist CHPG in hippocampal slices; assay type: cell-based; settings: CHPG 100 μM
T1 construct: from tissue; host or cells: hippocampal slices
Experimental: as §4
The interaction of ACGET61 with the mGluR5 agonist CHPG was explored in KCl stimulated hippocampal slices. […] Specifically, FIG. 5—KCl stimulated Hippocampal slices—K^+ evoked glutamate outflow. The effect of ACGET61 300 pM on the increase in glutamate outflow induced by CHPG 100 μM. ** p<0.01 vs Control; ^∘ p<0.05 vs ACGET61+CHPG.

[7] = system: primary cultures of rat hippocampal neurons; assay type: cell-based; settings: for Minimum effective concentration for neuroprotective effects: hippocampal neurons chronically exposed to ethanol, cell viability and ROS production
From the text: (§5) The neurotoxic effects of alcohol have been well documented, both in animals and humans, and the hippocampus represents a brain area particular sensitive to the detrimental effects of alcohol. Different preclinical models have been employed for studying the neurotoxic effects of alcohol. One of these models consists in exposing organotypic hippocampal cultures to alcohol, which exerts various effects, including a reduction in cell viability, and an increase in reactive oxygen species (ROS).
(§6) Briefly, primary cultures of rat hippocampal neurons were chronically exposed to ethanol (75 mM; 4 days) and the neuroprotective effects of ACGET61 were assessed by evaluating cell viability (MTT assay), and reactive oxygen species production (rhodamine 123 fluorescence).

[8] = system: primary cultures of rat hippocampal neurons; assay type: cell-based
From the text: as §5, §6
Ethanol exposure induced a significant increase in the ROS production (p<0.001), measured by the fluorescence emission of rhodamine 123.

[9] = target: T1, mGluR5; settings: GET73, same model; cited from earlier work
[10] = system: Sardinian alcohol preferring (sP) rats; settings: 2-bottle free choice model; cited from earlier work
[11] = cited from earlier work
[12] = FR4 model, sP rats, GET 73 tested up to 50
[13] = 0.01-10 μM, cultures not exposed to ethanol

T1 sequence (P31424 21-1203): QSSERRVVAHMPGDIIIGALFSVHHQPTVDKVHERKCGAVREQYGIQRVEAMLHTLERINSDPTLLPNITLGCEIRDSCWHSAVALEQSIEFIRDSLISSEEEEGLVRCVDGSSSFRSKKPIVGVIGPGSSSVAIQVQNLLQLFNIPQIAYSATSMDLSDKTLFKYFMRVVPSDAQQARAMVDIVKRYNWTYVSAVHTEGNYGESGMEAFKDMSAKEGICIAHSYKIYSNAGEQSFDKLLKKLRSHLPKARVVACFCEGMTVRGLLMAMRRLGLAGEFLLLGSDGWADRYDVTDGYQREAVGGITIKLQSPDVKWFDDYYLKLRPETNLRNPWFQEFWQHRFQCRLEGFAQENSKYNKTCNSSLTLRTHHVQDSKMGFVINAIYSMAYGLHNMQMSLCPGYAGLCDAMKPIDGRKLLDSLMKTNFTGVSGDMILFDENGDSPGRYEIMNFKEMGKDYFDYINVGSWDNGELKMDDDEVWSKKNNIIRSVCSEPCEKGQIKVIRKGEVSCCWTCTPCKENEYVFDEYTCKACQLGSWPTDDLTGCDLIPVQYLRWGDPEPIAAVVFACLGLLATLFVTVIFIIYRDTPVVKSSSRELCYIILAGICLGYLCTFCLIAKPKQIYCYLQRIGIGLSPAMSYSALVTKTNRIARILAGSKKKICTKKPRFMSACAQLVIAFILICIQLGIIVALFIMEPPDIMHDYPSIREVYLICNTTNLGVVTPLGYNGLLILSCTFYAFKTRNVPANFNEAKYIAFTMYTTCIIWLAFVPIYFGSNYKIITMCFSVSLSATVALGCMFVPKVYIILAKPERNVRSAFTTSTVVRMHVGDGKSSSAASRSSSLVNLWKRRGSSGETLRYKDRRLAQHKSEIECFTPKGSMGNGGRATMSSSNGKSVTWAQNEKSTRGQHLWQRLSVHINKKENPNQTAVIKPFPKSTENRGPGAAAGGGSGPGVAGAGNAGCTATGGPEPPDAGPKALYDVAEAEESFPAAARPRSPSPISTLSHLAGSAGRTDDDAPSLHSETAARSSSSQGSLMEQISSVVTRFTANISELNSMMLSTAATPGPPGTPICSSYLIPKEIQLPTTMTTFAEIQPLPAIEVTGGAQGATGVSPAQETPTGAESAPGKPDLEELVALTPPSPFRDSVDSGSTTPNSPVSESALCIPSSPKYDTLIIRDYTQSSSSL

COCCCC(=O)NCc1ccccc1C(F)(F)F [ACGET61, N-[(2-trifluoromethyl)benzyl]-4-methoxybutyramide]
Duration of effect ([1]; ACGET61, Maintenance model, sP rats): 24 h
Effect on water and food intake ([1]; 25 to 100 mg/kg): without affecting water and food intake
Effect on FR4 operant self-administration of alcohol (lever responses, alcohol and sucrose intake) ([2]; 100 mg/kg, 30 min session, p<0.05 vs vehicle): selective reducing effect on the reinforcing properties of alcohol
Effective Doses [2, 12]: 100 mg/kg
Number of lever pressing and break point for alcohol ([3]; 50 and 100 mg/kg, PR, 30 min session): reduced
Response for sucrose ([3]; 50 and 100 mg/kg, PR, sucrose 3% w/v): able to reduce also the response for sucrose
Effective Doses mg/kg ([3]; for alcohol and sucrose): 50-100 * mg/kg
Effect on basal release of GABA and glutamate [4]: No effects
K+-evoked glutamate outflow ([5]; 100, 300, and 500 pM): modest non significant reduction
Effect on K+-evoked GABA and glutamate outflow ([5]; concentrations between 10 nM and 10 μM): did not exert overt effects
K+-evoked GABA outflow ([5]; highest concentration (10 μM)): significant decrease
Effect on the increase in K+-evoked glutamate outflow exerted by CHPG ([6]; ACGET61 300 pM): able to counteract, at least in part
Concentration inhibiting CHPG-induced increase of glutamate in hippocampal slices ([6]; KCl stimulated slices): 300 pM
Cellular viability, compound by itself [7, 13]: did not affect cellular viability
Cell viability in ethanol exposed cultures ([7]; 0.1, 1, and 10 μM added 1 hour before and during ethanol 75 mM, 4 days, p<0.05 vs ethanol): prevented the ethanol-induced damage
Minimum effective concentration for neuroprotective effects [7]: 0.1 µM
ROS production, compound by itself [8, 13]: did not affect ROS production
ROS production in ethanol exposed cultures ([8]; 0.1, 1, and 10 μM added 1 h before and during ethanol 75 mM, 4 days): prevented the ethanol-induced increase of ROS production

COCCCC(=O)NCc1ccc(C(F)(F)F)cc1 [GET 73, 4-methoxy-N-[[4-(trifluoromethyl)phenyl]methyl]-butanamide, reference compound]
Effective Doses mg/kg [2, 12]: No effect
Effect in FR4 operant self-administration ([2]; GET73, same model): did not demonstrate any effects
Effect on PR operant self-administration of alcohol ([3]; GET73, same model): did not demonstrate any effects
Sucrose intake ([3]; PR, 50 mg/kg): significant reduction
Effective Doses mg/kg ([3]; limited to sucrose): 50 # mg/kg
Minimum effective concentration for neuroprotective effects [7]: 1 µM
Concentration inhibiting CHPG-induced increase of glutamate in hippocampal slices [9]: 500 nM

O=C(O)CCCO [GHB, gamma-hydroxybutyric acid]
Alcohol intake of sP rats [10]: reduced

NCC(CC(=O)O)c1ccc(Cl)cc1 (stereo not shown) [baclofen]
Alcohol intake of sP rats [10]: reduced

O=C1CC[C@@]2(O)[C@H]3Cc4ccc(O)c5c4[C@@]2(CCN3CC2CC2)[C@H]1O5 [naltrexone]
Alcohol intake of sP rats [10]: reduced

O=C(O)CCCO [sodium oxybate]
Time to peak plasma concentration ([11]; after oral administration): 30 to 45 min
Bioavailability ([11]; in vivo): about 30%
Half-life ([11]; in vivo): about 30 minutes
